Source: PubChem BioAssay (NCI)
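Briefly, cells in 96-well plates were exposed to five compound concentrations for 48 h, and endpoints were estimated by linear interpolation. TGI: concentration producing complete growth inhibition.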

Assays:
Assay in all cases: DTP human tumour cell line panel, 48 h
786-0 renal = test system: 786-0 renal
A498 renal = test system: A498 renal
A549 NSCLC = test system: A549 NSCLC
ACHN renal = test system: ACHN renal
BT-549 breast = test system: BT-549 breast
CAKI-1 renal = test system: CAKI-1 renal
CCRF-CEM leukemia = test system: CCRF-CEM leukemia
COLO 205 colon = test system: COLO 205 colon
DU-145 prostate = test system: DU-145 prostate
EKVX NSCLC = test system: EKVX NSCLC
HCC-2998 colon = test system: HCC-2998 colon
HCT-116 colon = test system: HCT-116 colon
HCT-15 colon = test system: HCT-15 colon
HL-60(TB) leukemia = test system: HL-60(TB) leukemia
HOP-62 NSCLC = test system: HOP-62 NSCLC
HOP-92 NSCLC = test system: HOP-92 NSCLC
HS 578T breast = test system: HS 578T breast
HT29 colon = test system: HT29 colon
IGROV1 ovarian = test system: IGROV1 ovarian
K-562 leukemia = test system: K-562 leukemia
KM12 colon = test system: KM12 colon
LOX IMVI melanoma = test system: LOX IMVI melanoma
M14 melanoma = test system: M14 melanoma
MALME-3M melanoma = test system: MALME-3M melanoma
MCF7 breast = test system: MCF7 breast
MDA-MB-231 breast = test system: MDA-MB-231 breast
MDA-MB-435 = test system: MDA-MB-435
MDA-N = test system: MDA-N
MOLT-4 leukemia = test system: MOLT-4 leukemia
NCI-H226 lung = test system: NCI-H226 lung
NCI-H460 lung = test system: NCI-H460 lung
NCI-H522 lung = test system: NCI-H522 lung
NCI/ADR-RES ovarian = test system: NCI/ADR-RES ovarian
OVCAR-3 ovarian = test system: OVCAR-3 ovarian
OVCAR-4 ovarian = test system: OVCAR-4 ovarian
OVCAR-5 ovarian = test system: OVCAR-5 ovarian
OVCAR-8 ovarian = test system: OVCAR-8 ovarian
PC-3 prostate = test system: PC-3 prostate
RPMI-8226 leukemia = test system: RPMI-8226 leukemia
RXF 393 renal = test system: RXF 393 renal
SF-268 CNS = test system: SF-268 CNS
SF-539 CNS = test system: SF-539 CNS
SK-MEL-2 melanoma = test system: SK-MEL-2 melanoma
SK-MEL-28 melanoma = test system: SK-MEL-28 melanoma
SK-MEL-5 melanoma = test system: SK-MEL-5 melanoma
SK-OV-3 ovarian = test system: SK-OV-3 ovarian
SN12C renal = test system: SN12C renal
SNB-19 CNS = test system: SNB-19 CNS
SNB-75 CNS = test system: SNB-75 CNS
SR leukemia = test system: SR leukemia
SW-620 colon = test system: SW-620 colon
T-47D breast = test system: T-47D breast
TK-10 renal = test system: TK-10 renal
U251 CNS = test system: U251 CNS
UACC-257 melanoma = test system: UACC-257 melanoma
UACC-62 melanoma = test system: UACC-62 melanoma
UO-31 renal = test system: UO-31 renal
NCI-H23 lung = test system: NCI-H23 lung
SF-295 CNS = test system: SF-295 CNS

For `Cc1ccc2nnc(NS(=O)(=O)c3cc(C)c(Cl)cc3S)n2n1`, the TGI (786-0 renal) was over 100 µM, the TGI (A498 renal) was over 100 µM and the TGI (A549 NSCLC) was over 100 µM. It also gave a TGI (ACHN renal) of over 100 µM, a TGI (BT-549 breast) of over 100 µM and a TGI (CAKI-1 renal) of over 100 µM. For the same molecule, the TGI (CCRF-CEM leukemia) was over 100 µM, the TGI (COLO 205 colon) was over 100 µM and the TGI (DU-145 prostate) was over 100 µM. The TGI (EKVX NSCLC) was over 100 µM, the TGI (HCC-2998 colon) was over 100 µM and the TGI (HCT-116 colon) was over 100 µM. The TGI (HCT-15 colon) was over 100 µM, the TGI (HL-60(TB) leukemia) was over 100 µM and the TGI (HOP-62 NSCLC) was over 100 µM. The TGI (HOP-92 NSCLC) was over 100 µM, the TGI (HS 578T breast) was over 100 µM and the TGI (HT29 colon) was over 100 µM. It also gave a TGI (IGROV1 ovarian) of over 100 µM, a TGI (K-562 leukemia) of over 100 µM and a TGI (KM12 colon) of over 100 µM. For the same molecule, the TGI (LOX IMVI melanoma) was over 100 µM, the TGI (M14 melanoma) was over 100 µM and the TGI (MALME-3M melanoma) was over 100 µM. The TGI (MCF7 breast) was over 100 µM, the TGI (MDA-MB-231 breast) was over 100 µM and the TGI (MDA-MB-435) was over 100 µM. For the same molecule, the TGI (MDA-N) was over 100 µM, the TGI (MOLT-4 leukemia) was over 100 µM and the TGI (NCI-H226 lung) was over 100 µM. For the same molecule, the TGI (NCI-H460 lung) was over 100 µM, the TGI (NCI-H522 lung) was over 100 µM and the TGI (NCI/ADR-RES ovarian) was over 100 µM. It also gave a TGI (OVCAR-3 ovarian) of over 100 µM, a TGI (OVCAR-4 ovarian) of over 100 µM and a TGI (OVCAR-5 ovarian) of over 100 µM. It also gave a TGI (OVCAR-8 ovarian) of over 100 µM, a TGI (PC-3 prostate) of over 100 µM and a TGI (RPMI-8226 leukemia) of over 100 µM. The TGI (RXF 393 renal) was over 100 µM, the TGI (SF-268 CNS) was over 100 µM and the TGI (SF-539 CNS) was over 100 µM. The TGI (SK-MEL-2 melanoma) was over 100 µM, the TGI (SK-MEL-28 melanoma) was over 100 µM and the TGI (SK-MEL-5 melanoma) was over 100 µM. The TGI (SK-OV-3 ovarian) was over 100 µM, the TGI (SN12C renal) was over 100 µM and the TGI (SNB-19 CNS) was over 100 µM. For the same molecule, the TGI (SNB-75 CNS) was over 100 µM, the TGI (SR leukemia) was over 100 µM and the TGI (SW-620 colon) was over 100 µM. It also gave a TGI (T-47D breast) of over 100 µM, a TGI (TK-10 renal) of over 100 µM and a TGI (U251 CNS) of over 100 µM. It also gave a TGI (UACC-257 melanoma) of over 100 µM, a TGI (UACC-62 melanoma) of over 100 µM and a TGI (UO-31 renal) of over 100 µM.
With `CCOC(=O)c1c(CN2CCOCC2)n(Cc2ccccc2)c2c1cc(O)c1nc(C)c(C)nc12` the TGI (786-0 renal) was 68.7 µM, the TGI (A498 renal) was 55.3 µM and the TGI (A549 NSCLC) was over 100 µM. It also gave a TGI (ACHN renal) of over 100 µM, a TGI (BT-549 breast) of 34 µM and a TGI (CAKI-1 renal) of 64.9 µM. It also gave a TGI (CCRF-CEM leukemia) of over 100 µM, a TGI (COLO 205 colon) of over 100 µM and a TGI (DU-145 prostate) of over 100 µM. It also gave a TGI (EKVX NSCLC) of over 100 µM, a TGI (HCC-2998 colon) of over 100 µM and a TGI (HCT-116 colon) of over 100 µM. For the same molecule, the TGI (HCT-15 colon) was over 100 µM, the TGI (HL-60(TB) leukemia) was over 100 µM and the TGI (HOP-62 NSCLC) was 51.1 µM. For the same molecule, the TGI (HS 578T breast) was over 100 µM, the TGI (HT29 colon) was over 100 µM and the TGI (K-562 leukemia) was over 100 µM. It also gave a TGI (KM12 colon) of over 100 µM, a TGI (LOX IMVI melanoma) of over 100 µM and a TGI (M14 melanoma) of over 100 µM. It also gave a TGI (MALME-3M melanoma) of over 100 µM, a TGI (MCF7 breast) of 34.5 µM and a TGI (MDA-MB-231 breast) of over 100 µM. For the same molecule, the TGI (MDA-MB-435) was over 100 µM, the TGI (MDA-N) was over 100 µM and the TGI (MOLT-4 leukemia) was over 100 µM. It also gave a TGI (NCI-H226 lung) of over 100 µM, a TGI (NCI-H23 lung) of over 100 µM and a TGI (NCI-H460 lung) of over 100 µM. For the same molecule, the TGI (NCI/ADR-RES ovarian) was over 100 µM, the TGI (OVCAR-3 ovarian) was over 100 µM and the TGI (OVCAR-4 ovarian) was over 100 µM. The TGI (OVCAR-5 ovarian) was over 100 µM, the TGI (OVCAR-8 ovarian) was 53.4 µM and the TGI (PC-3 prostate) was 92.4 µM. For the same molecule, the TGI (RPMI-8226 leukemia) was over 100 µM, the TGI (SF-268 CNS) was 54.4 µM and the TGI (SF-295 CNS) was over 100 µM. For the same molecule, the TGI (SF-539 CNS) was 87 µM, the TGI (SK-MEL-2 melanoma) was 44.5 µM and the TGI (SK-MEL-28 melanoma) was over 100 µM. The TGI (SK-MEL-5 melanoma) was 57.4 µM, the TGI (SK-OV-3 ovarian) was over 100 µM and the TGI (SN12C renal) was over 100 µM. The TGI (SNB-19 CNS) was over 100 µM, the TGI (SNB-75 CNS) was 32.7 µM and the TGI (SR leukemia) was over 100 µM. For the same molecule, the TGI (SW-620 colon) was over 100 µM, the TGI (T-47D breast) was over 100 µM and the TGI (TK-10 renal) was 97.7 µM. The TGI (U251 CNS) was 74.3 µM, the TGI (UACC-257 melanoma) was over 100 µM and the TGI (UACC-62 melanoma) was over 100 µM. It also gave a TGI (UO-31 renal) of over 100 µM.
